Earlier results, collected in PMC9516332 (Frontiers in Oncology, 2022).
Read-outs that look alike come from different tables or passages of the source.

How the values were obtained:
Settings in all cases: cited from earlier work
[1] = target: T1, panel of 255 wild-type kinases (Homo sapiens, UniProt Q96PF2)
T1 sequence (Q96PF2 1-358): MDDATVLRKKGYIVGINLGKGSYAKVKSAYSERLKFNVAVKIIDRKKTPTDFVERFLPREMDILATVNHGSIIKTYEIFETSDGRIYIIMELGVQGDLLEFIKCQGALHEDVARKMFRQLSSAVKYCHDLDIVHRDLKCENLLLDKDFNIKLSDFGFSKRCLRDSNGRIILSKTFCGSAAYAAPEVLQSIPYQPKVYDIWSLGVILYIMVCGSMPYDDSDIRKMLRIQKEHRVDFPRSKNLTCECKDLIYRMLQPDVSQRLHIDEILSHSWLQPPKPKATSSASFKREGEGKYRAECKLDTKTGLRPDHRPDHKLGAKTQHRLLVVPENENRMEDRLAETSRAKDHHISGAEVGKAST

[2] = target: panel of 255 wild-type kinases (Homo sapiens, UniProt Q9NYA1)
[3] = target: T2, panel of 255 wild-type kinases (Homo sapiens, UniProt O60285)
T2 sequence (O60285 1-661): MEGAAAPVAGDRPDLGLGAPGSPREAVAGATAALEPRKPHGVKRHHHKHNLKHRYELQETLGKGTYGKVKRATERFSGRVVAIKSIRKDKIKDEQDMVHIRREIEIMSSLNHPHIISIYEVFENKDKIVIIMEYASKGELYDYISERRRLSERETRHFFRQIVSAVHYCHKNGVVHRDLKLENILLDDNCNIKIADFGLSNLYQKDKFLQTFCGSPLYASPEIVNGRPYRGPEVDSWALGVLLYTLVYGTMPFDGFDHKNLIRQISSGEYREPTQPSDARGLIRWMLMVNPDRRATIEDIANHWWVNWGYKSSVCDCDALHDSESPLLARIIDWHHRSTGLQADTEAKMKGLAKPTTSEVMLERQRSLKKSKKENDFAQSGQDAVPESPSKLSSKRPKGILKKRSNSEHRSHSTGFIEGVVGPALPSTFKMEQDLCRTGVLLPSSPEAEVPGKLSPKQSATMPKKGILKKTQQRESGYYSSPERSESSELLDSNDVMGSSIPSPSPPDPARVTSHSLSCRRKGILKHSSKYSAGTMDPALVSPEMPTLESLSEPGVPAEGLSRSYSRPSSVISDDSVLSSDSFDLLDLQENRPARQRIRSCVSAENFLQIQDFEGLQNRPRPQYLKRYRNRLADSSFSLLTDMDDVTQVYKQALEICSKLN

[4] = target: T3, panel of 255 wild-type kinases (Homo sapiens, UniProt Q96L34)
T3 sequence (Q96L34 1-752): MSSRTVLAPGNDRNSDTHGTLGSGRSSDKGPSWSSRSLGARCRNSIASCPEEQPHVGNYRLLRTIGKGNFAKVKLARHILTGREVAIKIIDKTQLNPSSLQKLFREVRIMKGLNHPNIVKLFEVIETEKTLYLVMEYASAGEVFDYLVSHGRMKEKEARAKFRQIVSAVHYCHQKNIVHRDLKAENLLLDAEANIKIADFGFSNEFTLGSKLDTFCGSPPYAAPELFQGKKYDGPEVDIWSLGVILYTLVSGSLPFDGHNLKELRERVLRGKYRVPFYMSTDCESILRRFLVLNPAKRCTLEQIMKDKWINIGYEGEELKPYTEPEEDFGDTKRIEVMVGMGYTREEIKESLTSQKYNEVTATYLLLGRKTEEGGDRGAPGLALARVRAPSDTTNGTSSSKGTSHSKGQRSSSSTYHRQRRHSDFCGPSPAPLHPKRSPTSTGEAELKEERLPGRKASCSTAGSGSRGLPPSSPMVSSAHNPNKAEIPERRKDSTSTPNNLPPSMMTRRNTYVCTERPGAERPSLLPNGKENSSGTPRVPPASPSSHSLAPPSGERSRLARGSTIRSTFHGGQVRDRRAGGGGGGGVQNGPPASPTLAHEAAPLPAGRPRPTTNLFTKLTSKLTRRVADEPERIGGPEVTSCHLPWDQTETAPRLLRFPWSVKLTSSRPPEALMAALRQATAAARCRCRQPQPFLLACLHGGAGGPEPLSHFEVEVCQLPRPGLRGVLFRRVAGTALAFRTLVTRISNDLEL

[5] = target: T4, panel of 255 wild-type kinases (Homo sapiens, UniProt Q96KB5)
T4 sequence (Q96KB5 1-322): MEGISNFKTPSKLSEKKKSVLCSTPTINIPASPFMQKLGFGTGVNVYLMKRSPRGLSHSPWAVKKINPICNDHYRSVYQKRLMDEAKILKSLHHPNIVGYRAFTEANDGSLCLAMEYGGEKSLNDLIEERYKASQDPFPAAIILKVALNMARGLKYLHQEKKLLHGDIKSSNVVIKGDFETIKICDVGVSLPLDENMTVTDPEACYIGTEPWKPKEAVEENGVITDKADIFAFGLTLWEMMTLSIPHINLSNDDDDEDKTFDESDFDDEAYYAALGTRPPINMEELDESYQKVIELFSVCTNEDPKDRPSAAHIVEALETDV

[6] = target: panel of 255 wild-type kinases (Homo sapiens, UniProt O96013)
[7] = kinase TSSK2, 1 µmol/L single concentration, ref DOI: 10.1158/1535-7163.MCT-18-0877
[8] = kinase SPHK1, 1 µmol/L single concentration, ref DOI: 10.1158/1535-7163.MCT-18-0877
[9] = NuaK1, 1 µmol/L single concentration, ref DOI: 10.1158/1535-7163.MCT-18-0877
[10] = MARK4, 1 µmol/L single concentration, ref DOI: 10.1158/1535-7163.MCT-18-0877
[11] = kinase PBK, 1 µmol/L single concentration, ref DOI: 10.1158/1535-7163.MCT-18-0877
[12] = PAK4, 1 µmol/L single concentration, ref DOI: 10.1158/1535-7163.MCT-18-0877
[13] = kinase TSSK2, 1 µmol/L single concentration, ref DOI: 10.1371/journal.pone.0092146
[14] = kinase SPHK1, 1 µmol/L single concentration, ref DOI: 10.1371/journal.pone.0092146
[15] = NuaK1, 1 µmol/L single concentration, ref DOI: 10.1371/journal.pone.0092146
[16] = MARK4, 1 µmol/L single concentration, ref DOI: 10.1371/journal.pone.0092146
[17] = kinase PBK, 1 µmol/L single concentration, ref DOI: 10.1371/journal.pone.0092146
[18] = PAK4, 1 µmol/L single concentration, ref DOI: 10.1371/journal.pone.0092146

Compound	%-inhibition at 1 µmol/L, TSSK2 [1, 7]	%-inhibition at 1 µmol/L, SPHK1 [2, 8]	%-inhibition, NuaK1 [3, 9]	%-inhibition, MARK4 [4, 10]	%-inhibition at 1 µmol/L, PBK [5, 11]	%-inhibition, PAK4 [6, 12]	%-inhibition at 1 µmol/L, TSSK2 [1, 13]	%-inhibition at 1 µmol/L, SPHK1 [2, 14]	%-inhibition, NuaK1 [3, 15]	%-inhibition, MARK4 [4, 16]	%-inhibition at 1 µmol/L, PBK [5, 17]	%-inhibition, PAK4 [6, 18]	other results
CC#CC(=O)N1CCC[C@H]1c1nc(-c2ccc(C(=O)Nc3ccccn3)cc2)c2c(N)nccn12 [acalabrutinib]	-3%	-3%	-3.51%	-15%	-15%	-1.65%							
CCc1cc2c(cc1N1CCC(N3CCOCC3)CC1)C(C)(C)c1[nH]c3cc(C#N)ccc3c1C2=O [alectinib]	7%	-10%	-19%	-3%	-2.63%	6.55%							
COc1cc(N2CCC(N3CCN(C)CC3)CC2)ccc1Nc1ncc(Cl)c(Nc2ccccc2P(C)(C)=O)n1 [brigatinib]													%-inhibition at 1 µmol/L, TSSK2 [1]: 79%; %-inhibition at 1 µmol/L, SPHK1 [2]: -4%; %-inhibition, NuaK1 [3]: 90%; %-inhibition, MARK4 [4]: 101%; %-inhibition at 1 µmol/L, PBK [5]: 1.09%; %-inhibition, PAK4 [6]: 45%
Cc1cc(Nc2ncc(Cl)c(Nc3ccccc3S(=O)(=O)C(C)C)n2)c(OC(C)C)cc1C1CCNCC1 [ceritinib]	75%	-13%	17%	-2.63%	-11%	13%							
O=C(c1ccc(F)c(F)c1Nc1ccc(I)cc1F)N1CC(O)([C@@H]2CCCCN2)C1 [cobimetinib]	-2.33%	-5.63%	2.32%	-15%	76%	2%							
C[C@@H](Oc1cc(-c2cnn(C3CCNCC3)c2)cnc1N)c1c(Cl)ccc(F)c1Cl [crizotinib]							0.896%	-14%	99%	51%	-14%	-5.56%	
CC(C)(C)c1nc(-c2cccc(NS(=O)(=O)c3c(F)cccc3F)c2F)c(-c2ccnc(N)n2)s1 [dabrafenib]							-1.73%	-18%	7%	-27%	12%	11%	
C=CC(=O)N1CCC[C@@H](n2nc(-c3ccc(Oc4ccccc4)cc3)c3c(N)ncnc32)C1 [ibrutinib]	-4%	-3.38%	7%	-14%	-9%	11%							
CO[C@@H]1[C@H](N(C)C(=O)c2ccccc2)C[C@H]2O[C@]1(C)n1c3ccccc3c3c4c(c5c6ccccc6n2c5c31)C(=O)NC4 [midostaurin]	24%	-2.46%	101%	101%	-7%	30%							
C=CC(=O)Nc1cc(Nc2nccc(-c3cn(C)c4ccccc34)n2)c(OC)cc1N(C)CCN(C)C [osimertinib]	-0.257%	9%	48%	-13%	77%	12%							
CC(=O)Nc1cccc(-n2c(=O)n(C3CC3)c(=O)c3c(Nc4ccc(I)cc4F)n(C)c(=O)c(C)c32)c1 [trametinib]							-1.73%	-11%	-0.634%	-15%	-3.79%	-0.675%	
CCCS(=O)(=O)Nc1ccc(F)c(C(=O)c2c[nH]c3ncc(-c4ccc(Cl)cc4)cc23)c1F [vemurafenib]							-11%	-11%	4%	3.78%	-12%	-7%	
